The record followed here is ChEMBL document CHEMBL1201862, “PubChem BioAssay data set” (2004).

Among the test systems are ACHN; BT-549; CCRF-CEM; DU-145; HCT-15; HOP-62; HOP-92; IGROV-1; MDA-MB-231; MDA-MB-435; Malme-3M; NCI-H23; NCI-H460; NCI/ADR-RES; SF-268; SK-MEL-28; SK-MEL-5; SN12C; SNB-75; T47D.
Assay in all cases: DTP human tumour cell line panel, 48 h

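The compound was tested at five concentrations on cells cultured in 96-well plates, with a 48-hour exposure period. GI50 = concentration required for 50% inhibition of growth.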 The source made the active and inactive calls. No stated cut-off is given here; in the data, active = GI50 up to about 1.1 µM and inactive = higher.

Regarding `COc1cc2c(cc1O)CC1c3c(cc(O)c(OC)c3-2)CCN1C` (stereo not given), the GI50 in the assay with ACHN is > 100 µM (inactive); with BT-549, > 100 µM (inactive); with CCRF-CEM it was > 100 µM (inactive); in the assay with DU-145, > 100 µM (inactive); with HCT-15, more than 100 µM; in the assay with HOP-62, > 100 µM (inactive). Besides, the GI50 in the assay on HOP-92 was > 78.3 µM (inactive); with IGROV-1 it was > 100 µM (inactive); with MDA-MB-231, > 100 µM (inactive); in the assay with MDA-MB-435, > 100 µM (inactive); in the assay with Malme-3M it was > 100 µM (inactive); with NCI-H23 it was > 100 µM (inactive). Moreover, the GI50 was > 100 µM (inactive) in the assay on NCI-H460; > 100 µM (inactive) in the assay on NCI/ADR-RES; > 100 µM (inactive) in the assay with SF-268; > 100 µM (inactive) in the assay with SK-MEL-28; > 89.7 µM (inactive) with SK-MEL-5; > 100 µM (inactive) in the assay on SN12C. Besides, the GI50 in the assay on SNB-75 was 81.1 µM (inactive); with T47D, > 100 µM (inactive).

`CN(C)Cc1cc(Cl)c(O)c(CN(C)C)c1`: the GI50 in the assay on ACHN is > 100 µM (inactive); in the assay on BT-549, > 100 µM (inactive); in the assay on CCRF-CEM, > 100 µM (inactive); in the assay on DU-145, > 100 µM (inactive); in the assay with HCT-15 it was more than 100 µM; with HOP-62 it was > 100 µM (inactive). The GI50 with HOP-92, with IGROV-1, in the assay with MDA-MB-231, in the assay with MDA-MB-435, in the assay with Malme-3M and in the assay on NCI-H23 was > 100 µM (inactive) in each case. The GI50 in the assay on NCI-H460, in the assay with NCI/ADR-RES, with SF-268, in the assay on SK-MEL-28, in the assay on SK-MEL-5 and in the assay with SN12C was > 100 µM (inactive) throughout. The GI50 in the assay with SNB-75 and with T47D was > 100 µM (inactive) in each case.

In the case of `Oc1cc2c3c(c1)CCCN3CCC2`, the GI50 was > 10 µM (inactive) in the assay on ACHN; > 10 µM (inactive) with BT-549; > 10 µM (inactive) in the assay on CCRF-CEM; > 10 µM (inactive) in the assay on DU-145; more than 10 µM with HCT-15; > 10 µM (inactive) in the assay on HOP-62. For the same molecule, the GI50 with HOP-92, with IGROV-1, with MDA-MB-231, in the assay with MDA-MB-435, in the assay with Malme-3M and in the assay with NCI-H23 was > 10 µM (inactive) each time. Also, the GI50 in the assay with NCI-H460, in the assay on NCI/ADR-RES, in the assay on SF-268, in the assay with SK-MEL-28, in the assay with SK-MEL-5 and with SN12C was > 10 µM (inactive) in each case. The GI50 with SNB-75 and in the assay with T47D was > 10 µM (inactive) in each case.

As for `C/C(=N\O)c1ccc2cc(Br)c3ccccc3c2c1`, the GI50 with ACHN was 23.6 µM (inactive); in the assay on BT-549, 27.5 µM (inactive); in the assay on CCRF-CEM it was 17.5 µM (inactive); with DU-145, 39.4 µM (inactive); in the assay with HCT-15, 16 µM; in the assay with HOP-62, 20.2 µM (inactive). The GI50 with HOP-92 was 21 µM (inactive); in the assay on IGROV-1, 28 µM (inactive); in the assay on MDA-MB-231, 15.3 µM (inactive); with MDA-MB-435 it was 24.2 µM (inactive); with Malme-3M, 19.8 µM (inactive); in the assay on NCI-H23, 20 µM (inactive). The GI50 in the assay with NCI-H460 is 16.2 µM (inactive); in the assay on NCI/ADR-RES it was 19.9 µM (inactive); in the assay on SF-268, 26.2 µM (inactive); in the assay with SK-MEL-28 it was 19.3 µM (inactive); with SK-MEL-5, 16.8 µM (inactive); with SN12C, 14.8 µM (inactive). For the same molecule, the figures for the GI50 in the assay on SNB-75 and with T47D were 28.1 µM (inactive) and 22.5 µM (inactive), respectively.

With `CN1CCN(c2cc3[nH]c(-c4ccc(Cl)cc4)nc3cc2F)CC1`, the GI50 with ACHN was 12.5 µM (inactive); in the assay on BT-549, 15.8 µM (inactive); in the assay on CCRF-CEM it was 13.4 µM (inactive); in the assay with DU-145, 22.1 µM (inactive); with HCT-15, 5.42 µM; in the assay on HOP-62, 16.8 µM (inactive). Further, the GI50 was 25.4 µM (inactive) with HOP-92; 15.7 µM (inactive) in the assay with IGROV-1; 17.4 µM (inactive) in the assay on MDA-MB-231; 11.4 µM (inactive) in the assay on MDA-MB-435; 10.5 µM (inactive) in the assay on Malme-3M; 15.8 µM (inactive) with NCI-H23. Moreover, the GI50 is 11.5 µM (inactive) in the assay with NCI-H460; 21 µM (inactive) with NCI/ADR-RES; 16.2 µM (inactive) in the assay on SF-268; 8.75 µM (inactive) in the assay on SK-MEL-28; 10.6 µM (inactive) in the assay with SK-MEL-5; 26.7 µM (inactive) in the assay on SN12C. Besides, the GI50 in the assay with SNB-75 was 14.7 µM (inactive); in the assay with T47D, 19.1 µM (inactive).

With `CCN1CCC(O)(/C=C/c2ccc(C)cc2C)C(C(=O)/C=C/c2ccc(C)cc2C)C1` (stereo not given), the GI50 with ACHN was 1.83 µM (inactive); with BT-549, 2.79 µM (inactive); in the assay on CCRF-CEM, 1.82 µM (inactive); in the assay with DU-145, 4.59 µM (inactive); in the assay on HCT-15, 1.93 µM; with HOP-62, 2.89 µM (inactive). Moreover, the GI50 was 1.85 µM (inactive) with HOP-92; 2.89 µM (inactive) in the assay with IGROV-1; 2.23 µM (inactive) in the assay with MDA-MB-231; 2.51 µM (inactive) in the assay with MDA-MB-435; 5.82 µM (inactive) with Malme-3M; 2.77 µM (inactive) in the assay with NCI-H23. The GI50 with NCI-H460 was 1.35 µM (inactive); with NCI/ADR-RES, 2.46 µM (inactive); in the assay on SF-268 it was 2.4 µM (inactive); in the assay on SK-MEL-28 it was 4.7 µM (inactive); in the assay with SK-MEL-5 it was 3.04 µM (inactive); with SN12C it was 2.72 µM (inactive). The GI50 with SNB-75 was 5.79 µM (inactive); in the assay with T47D, 2.39 µM (inactive).

On to `O=c1[nH]nc(-c2ccc([N+](=O)[O-])cc2)n1/N=C/c1ccc([N+](=O)[O-])cc1`, for which the GI50 is > 100 µM (inactive) in the assay on ACHN; > 100 µM (inactive) in the assay on BT-549; 45 µM (inactive) in the assay on CCRF-CEM; > 100 µM (inactive) in the assay on DU-145; 73.8 µM in the assay with HCT-15; > 100 µM (inactive) with HOP-62. The GI50 in the assay with HOP-92 is > 100 µM (inactive); in the assay on IGROV-1, > 100 µM (inactive); in the assay with MDA-MB-231, > 100 µM (inactive); with MDA-MB-435 it was 99.5 µM (inactive); in the assay on Malme-3M, > 100 µM (inactive); in the assay with NCI-H23, 60.7 µM (inactive). Further, the GI50 with NCI-H460 was 30.4 µM (inactive); with NCI/ADR-RES, 64.7 µM (inactive); in the assay with SF-268, 72.9 µM (inactive); in the assay on SK-MEL-28, > 100 µM (inactive); in the assay with SK-MEL-5, 48.4 µM (inactive); with SN12C it was > 100 µM (inactive). In addition, the GI50 in the assay with SNB-75 and in the assay on T47D was > 100 µM (inactive) each time.

Take `COc1ccc2[nH]cc(C(=O)C(=O)NC34CC5CC(CC(C5)C3)C4)c2c1`: the GI50 was 29.4 µM (inactive) in the assay with ACHN; 43.3 µM (inactive) in the assay on BT-549; 9.48 µM (inactive) in the assay with CCRF-CEM; 39.4 µM (inactive) in the assay with DU-145; 9.16 µM in the assay on HCT-15; 16.5 µM (inactive) with HOP-62. Moreover, the GI50 is 29.5 µM (inactive) in the assay on HOP-92; 58.3 µM (inactive) with IGROV-1; 40.1 µM (inactive) in the assay on MDA-MB-231; 41.3 µM (inactive) in the assay on MDA-MB-435; 46.9 µM (inactive) with Malme-3M; > 72.6 µM (inactive) in the assay on NCI-H23. The GI50 was 7.31 µM (inactive) in the assay on NCI-H460; 55.2 µM (inactive) in the assay with NCI/ADR-RES; > 61.1 µM (inactive) with SF-268; 15.4 µM (inactive) in the assay on SK-MEL-28; 32.2 µM (inactive) in the assay with SK-MEL-5; 18.9 µM (inactive) in the assay with SN12C. In addition, the GI50 in the assay with SNB-75 is 37.9 µM (inactive); with T47D, 54.1 µM (inactive).

On to `CC(C)(O)C1CC[C@]2(C)CC[C@]3(C)[C@H](CC[C@@H]4[C@@]5(C)CC[C@H](O)C(C)(C)[C@@H]5CC[C@]43C)[C@@H]12` (stereo not given in full), for which the GI50 is 22.1 µM (inactive) in the assay with ACHN; 29.2 µM (inactive) with BT-549; 74.1 µM (inactive) in the assay on CCRF-CEM; 23.2 µM (inactive) in the assay with DU-145; 35 µM with HCT-15; 25.8 µM (inactive) in the assay on HOP-62. Also, the GI50 in the assay on HOP-92 was 14.5 µM (inactive); in the assay on IGROV-1, 33.3 µM (inactive); in the assay with MDA-MB-231, > 100 µM (inactive); with MDA-MB-435, 34.1 µM (inactive); in the assay on Malme-3M, 28.6 µM (inactive); in the assay on NCI-H23, 35.2 µM (inactive). For the same molecule, the GI50 was 34.8 µM (inactive) with NCI-H460; 29.4 µM (inactive) with NCI/ADR-RES; 31 µM (inactive) in the assay with SF-268; 29.2 µM (inactive) in the assay with SK-MEL-28; 26 µM (inactive) in the assay on SK-MEL-5; 81.3 µM (inactive) with SN12C. The GI50 in the assay with SNB-75 is 21.6 µM (inactive); with T47D it was 23.1 µM (inactive).

As for `CN(C)CCNc1ccc2nnn3c4ccccc4c(=O)c1c23`, the GI50 with ACHN was 1.22 µM (inactive); with BT-549, 13.2 µM (inactive); with CCRF-CEM, 2.27 µM (inactive); with DU-145, 3.91 µM (inactive); in the assay with HCT-15, 3.25 µM; with HOP-62, 3.72 µM (inactive). Besides, the GI50 was 2.48 µM (inactive) in the assay with HOP-92; 3.38 µM (inactive) in the assay on IGROV-1; 3.69 µM (inactive) in the assay with MDA-MB-231; 3.44 µM (inactive) in the assay on MDA-MB-435; 3.01 µM (inactive) in the assay with Malme-3M; 3.91 µM (inactive) in the assay with NCI-H23. The GI50 in the assay on NCI-H460 was 2.25 µM (inactive); in the assay on NCI/ADR-RES it was 2.4 µM (inactive); with SF-268, 4.22 µM (inactive); with SK-MEL-28 it was 4.99 µM (inactive); in the assay on SK-MEL-5, 2.15 µM (inactive); with SN12C it was 2.96 µM (inactive). In addition, the GI50 in the assay with SNB-75 was 2.55 µM (inactive); with T47D, 6 µM (inactive).
